Source: patent US20140018431A1 (priority 2007, published 2014)

Columns and labels:
[1] = tested on: airway smooth muscle; details: literature (Belvisi, 1998); cited from earlier work
[2] = format: in vivo, human; details: patients with PAH, 12-week trial
Protocol: The effect of treprostinil (in the form of Remodulin or inhaled treprostinil) on patients is analyzed using the 6-minute walk test with Borg dyspnea score, a standard assessment of exercise capacity and breathlessness in patients with lung disease. See Guyatt, G. Sullivan, M. et al. (Canada Medical Assoc. J. Vol. 132, 1985). The Six-Minute Walk corresponds closely to the demands of everyday activity and is a safe and simple measurement of functional exercise capacity for clinical trials in patients.
The area used for the Six-Minute Walk test should be pre-measured at a minimum of 108 feet (33 meters) in length and at least 6 to 10 feet (2 to 3 meters) in width. The length should be marked with half-yard (0.5 meter) gradations. The area should be well ventilated with air temperature controlled at 20 to 23° C. ([…].).
The tester may be at the starting end of the corridor or at the midpoint of the corridor with a stop-watch. Intermittent rest periods are allowed if the patient can no longer continue. If the patient needs to rest briefly, he/she may stand or sit and then begin again when he/she is sufficiently rested but the clock will continue to run. At the end of six minutes, the tester will call “stop” while simultaneously stopping the watch and then measure the distance walked. The Borg Dyspnea Rating is then administered.
No other instruction or encouragement are given during the test. Eye contact with the patient should be avoided during the test. Following the walk, the person administering the test obtains a rating of dyspnea using the Borg Scale. The person uses the following dialogue:
“I would like to use the following scale to indicate the maximal shortness of breath you had during the walk test (indicate the Borg Scale). […]

[3] = tested on: Ang-2 (angiopoetin-2); assay: Serum Ang-2 biomarker, patients with PAH, 12 weeks of treatment; format: in vivo, human; details: treatment for 12 weeks
Protocol: (§1) In addition, treatment with treprostinil is shown to have positive outcome in the six minute walk test described above.
(§2) 44 patients with PAH received study drug (Remodulin or placebo). 30 patients received Remodulin and 14 received placebo. A 12-week trial was conducted. The mean dose of Remodulin received was 72.5 ng/kg/min at Week 12 (compared to 80.0 ng/kg/min placebo-equivalent). Remodulin produced an 93.0 meter median improvement in the six-minute walk compared to placebo, Hodges-Lehmann estimate, with a 95% CI of 7.0 to 187.0 (p=0.0077) from nonparametric ANCOVA.
(§3) Baseline patients with PAH appeared to have higher-than-normal levels of MMP-9, Ang-2, VEG-F, and PDGF (matrix metalloproteinase 9, angiopoetin-2, vascular endothelium-derived growth factor, and platelet-derived growth factor, respectively).

[4] = tested on: VEG-F (vascular endothelium-derived growth factor); assay: Serum VEG-F biomarker, patients with PAH, 12 weeks of treatment; format: in vivo, human; details: treatment for 12 weeks
Protocol: as §1, §2, §3

[5] = tested on: PDGF (platelet-derived growth factor); assay: PDGF biomarker, patients with PAH, 12 weeks of treatment; format: in vivo, human; details: treatment for 12 weeks
Protocol: as §1, §2, §3

[6] = tested on: MMP-9 (matrix metalloproteinase 9); assay: MMP-9 biomarker, patients with PAH, 12 weeks of treatment; format: in vivo, human; details: treatment for 12 weeks
Protocol: as §1, §2, §3
Further, there was a statistically significant correlation between the degree of decrease in Ang-2 and the degree of improvement in the six-minute walk test.

[7] = tested on: lung myeloid dendritic cells; details: literature (Idzko, 2007), cited from earlier work

Question: For `CCCCC[C@H](O)/C=C/[C@@H]1[C@H]2C/C(=C/CCCC(=O)O)O[C@H]2C[C@H]1O` [PGI2], which “effect on airway smooth muscle proliferation” value [1] is on record?
Answer: antiproliferative effect

Question: What does the source list for `CCCCC[C@H](O)CC[C@@H]1[C@H]2Cc3cccc(OCC(=O)[O-])c3C[C@H]2C[C@H]1O.[Na+]` [Remodulin]?
Answer: median improvement in the six-minute walk compared to placebo, Hodges-Lehmann estimate ([2]; mean dose 72.5 ng/kg/min at Week 12, 95% CI of 7.0 to 187.0, p=0.0077, nonparametric ANCOVA): 93.0 meter; Borg Dyspnea score, median improvement over placebo ([2]; p=0.23): 2.0; combined ranking of 6MW/Borg Score Index ([2]; vs placebo, p=0.0023): significantly improved; serum Ang-2 [3]: significantly decreased; serum VEG-F [4]: significantly decreased; PDGF [5]: strong trend toward decreased; degree of change in MMP-9 [6]: not significant

Question: Which results are given for `CC#CCC(C)[C@H](O)/C=C/[C@@H]1[C@H]2C/C(=C/CCCC(=O)O)C[C@H]2C[C@H]1O` (stereo partly shown) [iloprost]?
Answer: anti-inflammatory effects in a mouse model of asthma [7]: anti-inflammatory effects; induction of allergen-specific Th2 response in mediastinal lymph nodes ([7]; mouse model of asthma): abolishing the induction
